Measurements published in ChEMBL document CHEMBL1138499, “Anti-AIDS agents. 78. Design, synthesis, metabolic stability assessment, and antiviral evaluation of novel betulinic acid derivatives as potent anti-human immunodeficiency virus (HIV) agents” (J Med Chem, 2009).

What was measured:
[1] = Metabolic stability in human liver microsomes assessed as drug remaining at 1 mg/mL after 5 mins by HPLC; type: ADME, Microsome; settings: read-out: Stability
[2] = Metabolic stability in human liver microsomes assessed as drug remaining at 1 mg/mL after 60 mins by HPLC; type: ADME, Microsome; settings: read-out: Stability
[3] = Therapeutic index, ratio of CC50 for human MT2 cells to EC50 for HIV1 3B; type: cell-based; settings: read-out: TI
[4] = system: Human immunodeficiency virus 1; experiment: Antiviral activity against HIV1 3B infected in human MT2 cells assessed as p24 antigen level after 4 days by ELISA; type: functional, organism-based; settings: Human immunodeficiency virus 1, 3B, MT2, 96 h
[5] = Metabolic stability in human liver microsomes assessed as drug remaining at 1 mg/mL after 15 mins by HPLC; type: ADME, Microsome; settings: read-out: Stability
[6] = Metabolic stability in human liver microsomes assessed as drug remaining at 1 mg/mL after 30 mins by HPLC; type: ADME, Microsome; settings: read-out: Stability
MT2 = settings: human
Description: Cytotoxicity against human MT2 cells by XTT assay

[7] = Metabolic stability in human liver microsomes assessed as drug remaining at 1 mg/mL after 120 mins by HPLC; type: ADME, Microsome; settings: read-out: Stability
[8] = system: Human immunodeficiency virus 1; experiment: Antiviral activity against HIV1 NL4-3 infected in human MT4 cells assessed as p24 antigen level after 4 days by ELISA; type: functional, organism-based; settings: Human immunodeficiency virus 1, NL4-3, MT4, 96 h
MT4 = experiment: Cytotoxicity against human MT4 cells by XTT assay; type: cell-based
[9] = system: Human immunodeficiency virus 1; experiment: Antiviral activity against HIV1 3B infected in human MT2 cells assessed as p24 antigen level at their respective CC50 concentration after 4 days by ELISA; type: functional, organism-based
[10] = Therapeutic index, ratio of CC50 for human MT4 cells to EC50 for HIV1 NL4-3; type: cell-based; settings: read-out: TI

SMILES: C=C(C)[C@@H]1CC[C@]2(C(=O)NCCCCCCCC(=O)O)CC[C@]3(C)[C@H](CC[C@@H]4[C@@]5(C)CC[C@H](O)C(C)(C)[C@@H]5CC[C@]43C)[C@@H]12
- remaining at 5 min, 1 mg/mL [1]: 93.4%
- remaining at 1 h, 1 mg/mL [2]: 40.1%
- selectivity ratio [3]: 10.1
- EC50 [4]: 3.3 µM
- remaining at 0.25 h, 1 mg/mL [5]: 70.7%
- remaining at 0.5 h, 1 mg/mL [6]: 61.9%
- CC50 (MT2): 33.4 µM
- remaining at 2 h, 1 mg/mL [7]: 7.9%

SMILES: C=C(C)[C@@H]1CC[C@]2(C(=O)NCCCCCCCC(=O)N[C@@H](CC(C)C)[C@H](O)CC(=O)O)CC[C@]3(C)[C@H](CC[C@@H]4[C@@]5(C)CC[C@H](O)C(C)(C)[C@@H]5CC[C@]43C)[C@@H]12
- EC50 [8]: 0.089 µM
- CC50 (MT4): > 10 µM

SMILES: C=C(C)[C@@H]1CC[C@]2(C(=O)N[C@@H](CC(C)C)C(=O)O)CC[C@]3(C)[C@H](CC[C@@H]4[C@@]5(C)CC[C@H](O)C(C)(C)[C@@H]5CC[C@]43C)[C@@H]12
- CC50 (MT2): 29.8 µM
- EC50 [9]: Not Active

SMILES: C=C(C)[C@@H]1CC[C@]2(C(=O)N3CCC(CCCC(=O)N4CCOCC4)CC3)CC[C@]3(C)[C@H](CC[C@@H]4[C@@]5(C)CC[C@H](OC(=O)CC(C)(C)C(=O)O)C(C)(C)[C@@H]5CC[C@]43C)[C@@H]12
- selectivity ratio [10]: 121
- selectivity ratio [3]: 1750
- EC50 [4]: 0.011 µM
- EC50 [8]: 0.07 µM
- CC50 (MT2): 19.2 µM
- CC50 (MT4): 8.8 µM

SMILES: C=C(CBr)[C@@H]1CC[C@]2(C(=O)N[C@@H](CC(C)C)C(=O)O)CC[C@]3(C)[C@H](CC[C@@H]4[C@@]5(C)CC[C@H](O)C(C)(C)[C@@H]5CC[C@]43C)[C@@H]12
- CC50 (MT2): 26.8 µM
- EC50 [9]: Not Active

SMILES: C=C(CBr)[C@@H]1CC[C@]2(C(=O)N[C@@H](CC(C)C)C(=O)O)CC[C@]3(C)[C@H](CC[C@@H]4[C@@]5(C)CC[C@H](OC(=O)CC(C)(C)C(=O)O)C(C)(C)[C@@H]5CC[C@]43C)[C@@H]12
- selectivity ratio [3]: 3020
- EC50 [4]: 0.011 µM
- CC50 (MT2): 33.2 µM

SMILES: C=C(COCCC)[C@@H]1CC[C@]2(C(=O)N[C@@H](CC(C)C)C(=O)O)CC[C@]3(C)[C@H](CC[C@@H]4[C@@]5(C)CC[C@H](O)C(C)(C)[C@@H]5CC[C@]43C)[C@@H]12
- CC50 (MT2): 25.3 µM
- EC50 [9]: Not Active

SMILES: C=C(COCCN1CCOCC1)[C@@H]1CC[C@]2(C(=O)NCCCCCCCC(=O)NC)CC[C@]3(C)[C@H](CC[C@@H]4[C@@]5(C)CC[C@H](O)C(C)(C)[C@@H]5CC[C@]43C)[C@@H]12
- selectivity ratio [10]: > 138
- selectivity ratio [3]: 250
- EC50 [4]: 0.09 µM
- EC50 [8]: 0.09 µM
- CC50 (MT2): 22.3 µM
- CC50 (MT4): > 10 µM

SMILES: C=C(C)[C@@H]1CC[C@]2(C(=O)N[C@@H](CC(C)C)C(=O)O)CC[C@]3(C)[C@H](CC[C@@H]4[C@@]5(C)CC[C@H](NC(=O)CC(C)(C)C(=O)O)C(C)(C)[C@@H]5CC[C@]43C)[C@@H]12
- selectivity ratio [3]: 2.7
- EC50 [4]: 13.2 µM
- CC50 (MT2): 35.9 µM

SMILES: C=C(CBr)[C@@H]1CC[C@]2(C(=O)NCCCCCCCC(=O)O)CC[C@]3(C)[C@H](CC[C@@H]4[C@@]5(C)CC[C@H](O)C(C)(C)[C@@H]5CC[C@]43C)[C@@H]12
- selectivity ratio [3]: 16.1
- EC50 [4]: 2.3 µM
- CC50 (MT2): 36.9 µM

SMILES: C=C(C)[C@@H]1CC[C@]2(C(=O)N3CCC(CCCC(=O)NC)CC3)CC[C@]3(C)[C@H](CC[C@@H]4[C@@]5(C)CC[C@H](OC(=O)CC(C)(C)C(=O)O)C(C)(C)[C@@H]5CC[C@]43C)[C@@H]12
- selectivity ratio [3]: 497
- EC50 [4]: 0.067 µM
- EC50 [8]: 0.24 µM
- CC50 (MT2): 33.3 µM
- CC50 (MT4): > 10 µM

SMILES: C=C(C)[C@@H]1CC[C@]2(C(=O)N3CCC(CCCC(=O)NCCN4CCOCC4)CC3)CC[C@]3(C)[C@H](CC[C@@H]4[C@@]5(C)CC[C@H](OC(=O)CC(C)(C)C(=O)O)C(C)(C)[C@@H]5CC[C@]43C)[C@@H]12
- selectivity ratio [10]: 284
- selectivity ratio [3]: 2470
- EC50 [4]: 0.007 µM
- EC50 [8]: 0.035 µM
- CC50 (MT2): 17.3 µM
- CC50 (MT4): 8.5 µM

SMILES: C=C(C)[C@@H]1CC[C@]2(C(=O)N3CCC(CCCC(=O)O)CC3)CC[C@]3(C)[C@H](CC[C@@H]4[C@@]5(C)CC[C@H](O)C(C)(C)[C@@H]5CC[C@]43C)[C@@H]12
- remaining at 5 min, 1 mg/mL [1]: 102%
- remaining at 1 h, 1 mg/mL [2]: 62.7%
- selectivity ratio [3]: 1.9
- EC50 [4]: 21.7 µM
- remaining at 0.25 h, 1 mg/mL [5]: 97.6%
- remaining at 0.5 h, 1 mg/mL [6]: 81.4%
- CC50 (MT2): 41 µM
- remaining at 2 h, 1 mg/mL [7]: 53.8%

SMILES: C=C(COCCc1ccc(F)cc1)[C@@H]1CC[C@]2(C(=O)N[C@@H](CC(C)C)C(=O)O)CC[C@]3(C)[C@H](CC[C@@H]4[C@@]5(C)CC[C@H](O)C(C)(C)[C@@H]5CC[C@]43C)[C@@H]12
- CC50 (MT2): 24.4 µM
- EC50 [9]: Not Active

SMILES: C=C(C)[C@@H]1CC[C@]2(C(=O)N3CCC(CCCC(=O)O)CC3)CC[C@]3(C)[C@H](CC[C@@H]4[C@@]5(C)CC[C@H](OC(=O)CC(C)(C)C(=O)O)C(C)(C)[C@@H]5CC[C@]43C)[C@@H]12
- selectivity ratio [3]: 1390
- EC50 [4]: 0.015 µM
- CC50 (MT2): 20.8 µM

SMILES: C=C(COCCc1ccc(Cl)cc1)[C@@H]1CC[C@]2(C(=O)N[C@@H](CC(C)C)C(=O)O)CC[C@]3(C)[C@H](CC[C@@H]4[C@@]5(C)CC[C@H](O)C(C)(C)[C@@H]5CC[C@]43C)[C@@H]12
- selectivity ratio [3]: 1.2
- EC50 [4]: 27.8 µM
- CC50 (MT2): 34.6 µM

SMILES: C=C(COCCN1CCOCC1)[C@@H]1CC[C@]2(C(=O)N[C@@H](CC(C)C)C(=O)O)CC[C@]3(C)[C@H](CC[C@@H]4[C@@]5(C)CC[C@H](O)C(C)(C)[C@@H]5CC[C@]43C)[C@@H]12
- selectivity ratio [3]: 1.4
- EC50 [4]: 26.6 µM
- CC50 (MT2): 35.8 µM

SMILES: C=C(CON1CCOCC1)[C@@H]1CC[C@]2(C(=O)N[C@@H](CC(C)C)C(=O)O)CC[C@]3(C)[C@H](CC[C@@H]4[C@@]5(C)CC[C@H](O)C(C)(C)[C@@H]5CC[C@]43C)[C@@H]12
- CC50 (MT2): 27.5 µM
- EC50 [9]: Not Active

SMILES: C=C(COCCc1ccccc1)[C@@H]1CC[C@]2(C(=O)N[C@@H](CC(C)C)C(=O)O)CC[C@]3(C)[C@H](CC[C@@H]4[C@@]5(C)CC[C@H](O)C(C)(C)[C@@H]5CC[C@]43C)[C@@H]12
- CC50 (MT2): 21.7 µM
- EC50 [9]: Not Active

SMILES: C=C(CO)[C@@H]1CC[C@]2(C(=O)NCCCCCCCC(=O)O)CC[C@]3(C)[C@H](CC[C@@H]4[C@@]5(C)CC[C@H](O)C(C)(C)[C@@H]5CC[C@]43C)[C@@H]12
- selectivity ratio [3]: 2.8
- EC50 [4]: 14.8 µM
- CC50 (MT2): 40.7 µM

SMILES: C=C(COCCc1ccc(OC)cc1)[C@@H]1CC[C@]2(C(=O)N[C@@H](CC(C)C)C(=O)O)CC[C@]3(C)[C@H](CC[C@@H]4[C@@]5(C)CC[C@H](O)C(C)(C)[C@@H]5CC[C@]43C)[C@@H]12
- CC50 (MT2): 16.7 µM
- EC50 [9]: Not Active

SMILES: C=C(COCC)[C@@H]1CC[C@]2(C(=O)N[C@@H](CC(C)C)C(=O)O)CC[C@]3(C)[C@H](CC[C@@H]4[C@@]5(C)CC[C@H](O)C(C)(C)[C@@H]5CC[C@]43C)[C@@H]12
- CC50 (MT2): 40.7 µM
- EC50 [9]: Not Active

SMILES: C=C(COCCc1ccc(Br)cc1)[C@@H]1CC[C@]2(C(=O)N[C@@H](CC(C)C)C(=O)O)CC[C@]3(C)[C@H](CC[C@@H]4[C@@]5(C)CC[C@H](O)C(C)(C)[C@@H]5CC[C@]43C)[C@@H]12
- CC50 (MT2): 20.8 µM
- EC50 [9]: Not Active

SMILES: C=C(COCCN1CCOCC1)[C@@H]1CC[C@]2(C(=O)NCCCCCCCC(=O)O)CC[C@]3(C)[C@H](CC[C@@H]4[C@@]5(C)CC[C@H](O)C(C)(C)[C@@H]5CC[C@]43C)[C@@H]12
- selectivity ratio [3]: 13.8
- EC50 [4]: 1.8 µM
- CC50 (MT2): 24.8 µM

SMILES: C=C(CO)[C@@H]1CC[C@]2(C(=O)N[C@@H](CC(C)C)C(=O)O)CC[C@]3(C)[C@H](CC[C@@H]4[C@@]5(C)CC[C@H](O)C(C)(C)[C@@H]5CC[C@]43C)[C@@H]12
- CC50 (MT2): 30.7 µM
- EC50 [9]: Not Active

SMILES: C=C(COCCCC)[C@@H]1CC[C@]2(C(=O)N[C@@H](CC(C)C)C(=O)O)CC[C@]3(C)[C@H](CC[C@@H]4[C@@]5(C)CC[C@H](O)C(C)(C)[C@@H]5CC[C@]43C)[C@@H]12
- CC50 (MT2): 24.9 µM
- EC50 [9]: Not Active

SMILES: C=C(C)[C@@H]1CC[C@]2(C(=O)N3CCC(CCCC(=O)O)CC3)CC[C@]3(C)[C@H](CC[C@@H]4[C@@]5(C)CC[C@H](OC(=O)CCC(C)(C)C(=O)O)C(C)(C)[C@@H]5CC[C@]43C)[C@@H]12
- selectivity ratio [3]: 145
- EC50 [4]: 0.23 µM
- CC50 (MT2): 33.2 µM

SMILES: C=C(C)[C@@H]1CC[C@]2(C(=O)NCCCCCCCNC(C)=O)CC[C@]3(C)[C@H](CC[C@@H]4[C@@]5(C)CC[C@H](O)C(C)(C)[C@@H]5CC[C@]43C)[C@@H]12
- selectivity ratio [10]: > 150
- EC50 [8]: 0.092 µM
- CC50 (MT4): > 10 µM

SMILES: C=C(C)[C@@H]1CC[C@]2(C(=O)N3CCC(CCCC(=O)NCCCN4CCOCC4)CC3)CC[C@]3(C)[C@H](CC[C@@H]4[C@@]5(C)CC[C@H](OC(=O)CC(C)(C)C(=O)O)C(C)(C)[C@@H]5CC[C@]43C)[C@@H]12
- selectivity ratio [10]: 246
- selectivity ratio [3]: 3090
- EC50 [4]: 0.006 µM
- EC50 [8]: 0.031 µM
- CC50 (MT2): 18.5 µM
- CC50 (MT4): 8.6 µM

SMILES: Cc1cn([C@H]2C[C@H](N=[N+]=[N-])[C@@H](CO)O2)c(=O)[nH]c1=O [ZIDOVUDINE]
- CC50 (MT2): 1870 µM
